Assay results as given in BigSolDB 2.1.

CCOC(=O)[C@@H](N)Cc1ccccc1.Cl
solubility (mole fraction)
Details | 283.15 K | 288.15 K | 293.15 K | 298.15 K | 303.15 K | 308.15 K | 313.15 K | 318.15 K | 323.15 K
in 1,4-dioxane | – | 0.0023 | 0.00301 | 0.0037 | 0.00498 | 0.00668 | 0.00876 | 0.0115 | 0.0148
in 2-butoxyethanol | 0.035 | 0.039 | 0.0435 | 0.0473 | 0.052 | 0.0575 | 0.0633 | 0.0695 | 0.076
in 2-propoxyethanol | 0.042 | 0.0472 | 0.052 | 0.0557 | 0.0616 | 0.0675 | 0.0738 | 0.08 | 0.087
in THF | 0.00079 | 0.00102 | 0.00127 | 0.0016 | 0.00204 | 0.00257 | 0.00316 | 0.00398 | 0.00491
in isopropanol | 0.0074 | 0.00934 | 0.0117 | 0.0147 | 0.0189 | 0.0227 | 0.0278 | 0.0337 | 0.0413
in n-butanol | 0.0176 | 0.0218 | 0.0262 | 0.032 | 0.0355 | 0.0417 | 0.0509 | 0.0601 | 0.0696
in n-propanol | 0.0272 | 0.0316 | 0.0367 | 0.0423 | 0.0491 | 0.0566 | 0.0656 | 0.0734 | 0.0838
